Measured values as given in PMC6216040, “Repurposing of an old drug: In vitro and in vivo efficacies of buparvaquone against Echinococcus multilocularis” (International Journal for Parasitology: Drugs and Drug …, 2018).
≈ marks a conversion by molar mass, not a printed value. Read-outs that look alike come from different tables or passages of the source.

What was measured:
[1] = system: E. multilocularis metacestodes; experiment: BPQ treatment of E. multilocularis infected mice; type: in vivo, Balb/c mice
Method: Balb/c mice, 6 weeks old, were purchased from Charles River Laboratories (Sulzheim, Germany) and used for in vivo experiments when they were 8 weeks old and weighted approximately 20 g. The mice were housed in a type 3 cage containing enrichment in the form of a cardboard house and paper and woodchip bedding with a maximum of seven mice per cage. […] Food and water was provided ad libitum. Experimentally infected mice were treated with BPQ to elucidate the efficacy of the drug in vivo. To infect mice, in vitro grown E. multilocularis metacestodes (isolate […]) were washed in PBS, were mechanically destroyed by pipetting and the resulting suspension was centrifuged for 5 min at 500 g. The parasite tissue was then taken up in an equal volume of PBS. Each mouse was subsequently infected intraperitoneally (i.p.) with 200 μl of this suspension. […] infected mice were randomly distributed into 3 treatment groups (8 animals per group) with 4 animals per cage. […] Treatments of mice started 2 weeks post-infection and lasted for 4 weeks, with consecutive treatment of mice for 5 days per week, followed by an interruption of treatment for 2 days for recovery. All treatments were administered by oral gavage in a volume of 50 μl, with ABZ and BPQ being suspended in corn oil. After four weeks, all mice were anesthetized with isoflurane and subsequently euthanized by CO2. The parasitic tissue from each mouse was completely resected and weighed. The mass of the resected parasitic tissue was used for statistical analyses of the experiment. […] The significance level was set to p < 0.05. Figures were prepared in R and Adobe Illustrator 2015.1.0.

[2] = system: E. multilocularis metacestodes; experiment: PGI-assay: drug-induced damage on in vitro cultured metacestodes (Pathogen Box screening cascade and EC50); type: cell-based, Echinococcus multilocularis; details: for activity in the present in vitro screen (threshold 20% relative activity compared to Tx-100) / activity in the screen at 10 μM (confirmed in triplicates, >20% relative PGI release): 10 μM; for activity against metacestodes at 1 μM / PGI release, % of Tx-100 control, average, 5d / PGI release, % of Tx-100 control, average, 12d: triplicates; for PGI release, % of Tx-100 control, average, 5d / PGI release, % of Tx-100 control, average, 12d: 1 µM; for activity in the screen at 10 μM (confirmed in triplicates, >20% relative PGI release): 5 and 12 days; for toxicity against E. multilocularis metacestodes compared with host cells (HFF, RH): comparison of EC50 with IC50 on mammalian cells; for PGI release, % of Tx-100 control at 10 µM: confirmatory screening at 10 µM in triplicates, values as % of Tx-100 control
E. granulosus = system: E. granulosus; set-up: method as in Kammerer and Perez-Esandi, 1975; Miyaji et al., 1993; details: ref Kammerer and Perez-Esandi, 1975; Miyaji et al., 1993; cited from earlier work
[3] = system: E. multilocularis metacestodes; experiment: Vesicle viability assay by Alamar Blue (MIC); type: cell-based, Echinococcus multilocularis
Method: The setup was the same as for PGI-assay EC50 calculations and it was performed in triplicates. […] Data was used to calculate the minimal inhibitory concentrations (MICs) of these compounds on metacestodes.

[4] = system: Reuber rat hepatoma (RH) cells; experiment: Cytotoxicity by Alamar Blue assay in rat hepatoma cells; type: cell-based; details: 120 h
[5] = system: human foreskin fibroblasts (HFF); experiment: Cytotoxicity by Alamar Blue assay in human foreskin fibroblasts; details: for IC50: Homo sapiens, Fibroblast, 120 h
[6] = system: human foreskin fibroblasts (HFF); set-up: method as in Stadelmann et al., 2016; details: ref Stadelmann et al., 2016; cited from earlier work
[7] = system: E. multilocularis metacestodes; details: cited from earlier work; for effect in vitro against E. multilocularis metacestodes: ref Reuter et al.
[8] = Echinococcus multilocularis, 120 h, 10 µM, singlets, 5 days of incubation, read-out: PGI release, % of the Tx-100 control, 5d
[9] = Echinococcus multilocularis, 288 h, 10 µM, singlets, 12 days of incubation, read-out: PGI release, % of the Tx-100 control, 12d
[10] = Echinococcus multilocularis, 120 h, read-out: PGI release, % of Tx-100 control, average, 5d
[11] = Echinococcus multilocularis, 120 h, read-out: PGI release, % of the Tx-100 control, 5d
[12] = Echinococcus multilocularis, 288 h, read-out: PGI release, % of Tx-100 control, average, 12d
[13] = Echinococcus multilocularis, 288 h, read-out: PGI release, % of the Tx-100 control, 12d
[14] = Echinococcus multilocularis, 288 h, read-out: E. multilocularis MIC, Alamar Blue vesicle viability assay, 12 days of incubation
[15] = read-out: HFF preconfluent IC50
[16] = Echinococcus multilocularis, 120 h, 5 days of incubation, read-out: PGI release, % of Tx-100 control, average, 5d
[17] = Echinococcus multilocularis, 288 h, 12 days of incubation, read-out: PGI release, % of Tx-100 control, average, 12d

CCCSc1ccc2nc(NC(=O)OC)[nH]c2c1 [ABZ, albendazole]
parasite burden compared to the control ([1]; p.o. in corn oil, 5 days per week, 4 weeks, BPQ 100 mg/kg, ABZ 200 mg/kg): significant reduction
adverse effects due to treatment ([1]; whole course of treatment, 4 weeks p.o.): None of the mice showed signs of adverse effects

N=C(N)c1ccc(OCCCCCOc2ccc(C(=N)N)cc2)cc1 [MMV000062, Pentamidine, reference compound]
activity in the present in vitro screen (threshold 20% relative activity compared to Tx-100) [2]: inactive
cytotoxicity at 10 µM [2, 8]: -1%
cytotoxicity at 10 µM [2, 9]: -1.06%
effect in vivo against E. granulosus (E. granulosus): did not show any effects

NCCC[C@](N)(C(=O)O)C(F)F [MMV001625, alpha-Difluoromethylornithine, reference compound]
activity in the present in vitro screen (threshold 20% relative activity compared to Tx-100) [2]: inactive
PGI release, % of the Tx-100 control, 5d ([2]; 10 µM, singlets, 5 days of incubation): -0.43%
PGI release, % of the Tx-100 control, 12d ([2]; 10 µM, singlets, 12 days of incubation): -0.93%
effect in vivo against E. granulosus (E. granulosus): did not show any effects

c1ccc(-c2nc(NC3CCCCC3)cc(C3CC3)n2)nc1 [MMV021013]
activity against metacestodes at 1 μM [2]: distinct in vitro activities
PGI release, % of Tx-100 control, average, 5d ([2]; 5 days of incubation): 3.92%
PGI release, % of Tx-100 control, average, 12d ([2]; 12 days of incubation): 24.95%
activity in the screen at 10 μM (confirmed in triplicates, >20% relative PGI release) [2]: active
EC50 ([2]; Echinococcus multilocularis, 120 h, read-out: E. multilocularis EC50, PGI-assay, 5 days in vitro): 15800 nM
cytotoxicity at 10 µM [2, 10]: 37.8%
cytotoxicity at 10 µM [2, 11]: 34.8%
cytotoxicity at 10 µM [2, 12]: 42.3%
cytotoxicity at 10 µM [2, 13]: 92%
toxicity against E. multilocularis metacestodes compared with host cells (HFF, RH) [2]: as toxic to host cells as it was to E. multilocularis metacestodes
MIC [3, 14]: 20 µM (≈ 5.89 µg/mL)
IC50 ([4]; read-out: RH confluent IC50): 2070 nM
IC50 ([4]; read-out: RH preconfluent IC50): 1100 nM
IC50 ([5]; read-out: HFF confluent IC50): 53100 nM
IC50 [5, 15]: 5140 nM

Cc1ccc(C(=O)Nc2ccc(S(=O)(=O)O)c3cc(S(=O)(=O)O)cc(S(=O)(=O)O)c23)cc1NC(=O)c1cccc(NC(=O)Nc2cccc(C(=O)Nc3cc(C(=O)Nc4ccc(S(=O)(=O)O)c5cc(S(=O)(=O)O)cc(S(=O)(=O)O)c45)ccc3C)c2)c1 [MMV637953, Suramin, reference compound]
activity in the present in vitro screen (threshold 20% relative activity compared to Tx-100) [2]: inactive
cytotoxicity at 10 µM [2, 8]: 0.85%
cytotoxicity at 10 µM [2, 9]: 0.51%
effect in vivo against E. granulosus (E. granulosus): did not show any effects

O=C(Nc1cccc(C(F)(F)F)c1)c1cc(Cl)ccc1O [MMV665807]
toxicity against HFF [6]: did not exhibit any specific toxicity

Cc1[nH]c2cc(F)cc(F)c2c(=O)c1-c1ccc(Oc2ccc(OC(F)(F)F)cc2)cc1 [MMV671636, ELQ-400]
activity against metacestodes at 1 μM [2]: distinct in vitro activities
PGI release, % of Tx-100 control, average, 5d ([2]; 5 days of incubation): 56.00%
PGI release, % of Tx-100 control, average, 12d ([2]; 12 days of incubation): 70.43%
activity in the screen at 10 μM (confirmed in triplicates, >20% relative PGI release) [2]: active
cytotoxicity at 10 µM [2, 10]: 5.44%
cytotoxicity at 10 µM [2, 11]: 6.52%
cytotoxicity at 10 µM [2, 12]: 76.1%
cytotoxicity at 10 µM [2, 13]: 24%
IC50 ([2]; Echinococcus multilocularis, read-out: IC50 against in vitro cultured E. multilocularis metacestodes): 20 nM
toxicity against E. multilocularis metacestodes compared with host cells (HFF, RH) [2]: specific toxicity
EC50 ([2]; read-out: E. multilocularis EC50, PGI-assay, 5 days in vitro): 20 nM
EC50 ([2]; read-out: E. multilocularis EC50, PGI-assay, 5 days in vitro, listed as MMV671363): < 1000 nM
E. multilocularis MIC ([3]; Alamar Blue vesicle viability assay, 12 days of incubation, listed as MMV671363): below 1 μM
MIC ([3]; Alamar Blue vesicle viability assay, 12 days of incubation, read-out: E. multilocularis MIC): 0.01 µM (≈ 0.00447 µg/mL)
IC50 ([4]; read-out: RH confluent IC50): 2070 nM
IC50 ([4]; read-out: RH preconfluent IC50): 250 nM
IC50 ([5]; read-out: HFF confluent IC50): 74800 nM
IC50 [5, 15]: 12300 nM

O=C(Nc1cc(C(F)(F)F)cc(C(F)(F)F)c1)c1cc(Cl)ccc1O [MMV687807]
activity against metacestodes at 1 μM [2]: distinct in vitro activities
PGI release, % of Tx-100 control, average, 5d ([2]; 5 days of incubation): 40.83%
PGI release, % of Tx-100 control, average, 12d ([2]; 12 days of incubation): 59.00%
activity in the screen at 10 μM (confirmed in triplicates, >20% relative PGI release) [2]: active
cytotoxicity at 10 µM [2, 10]: 58.5%
cytotoxicity at 10 µM [2, 11]: 30.8%
cytotoxicity at 10 µM [2, 12]: 74.5%
cytotoxicity at 10 µM [2, 13]: 64.7%
toxicity against E. multilocularis metacestodes compared with host cells (HFF, RH) [2]: could only exhibit a potential therapeutic window for RH cells
MIC [3, 14]: < 1 µM
IC50 ([4]; read-out: RH confluent IC50): 20100 nM
IC50 ([4]; read-out: RH preconfluent IC50): 1270 nM
IC50 ([5]; read-out: HFF confluent IC50): 370 nM
IC50 [5, 15]: 150 nM
toxicity against HFF (in words) ([5]; among the four compounds): highest toxicity against HFF

CO[C@H]1/C=C/O[C@@]2(C)Oc3c(C)c(O)c4c(O)c(c(/C=N/N5CCN(C)CC5)c(O)c4c3C2=O)NC(=O)/C(C)=C\C=C\[C@H](C)[C@H](O)[C@@H](C)[C@@H](O)[C@@H](C)[C@H](OC(C)=O)[C@@H]1C [MMV688775, Rifampicin, reference compound]
activity in the present in vitro screen (threshold 20% relative activity compared to Tx-100) [2]: inactive
cytotoxicity at 10 µM [2, 8]: -0.7%
cytotoxicity at 10 µM [2, 9]: -1.35%
effect in vitro against E. multilocularis metacestodes [7]; 2006: ineffective

CCCCCCCCCCCCCCCCOP(=O)([O-])OCC[N+](C)(C)C [MMV688990, Miltefosine, reference compound]
activity in the present in vitro screen (threshold 20% relative activity compared to Tx-100) [2]: inactive
cytotoxicity at 10 µM [2, 8]: -1.11%
cytotoxicity at 10 µM [2, 9]: -5.17%
effect in vitro against E. multilocularis metacestodes [7]; 2006: ineffective

CC(=O)Oc1ccccc1C(=O)Nc1ncc([N+](=O)[O-])s1 [MMV688991, Nitazoxanide, reference compound]
activity against metacestodes at 1 μM [2]: did not maintain its activity
PGI release, % of Tx-100 control, average, 5d ([2]; 5 days of incubation): 1.35%
PGI release, % of Tx-100 control, average, 12d ([2]; 12 days of incubation): 11.08%
activity in the screen at 10 μM (confirmed in triplicates, >20% relative PGI release) [2]: active
cytotoxicity at 10 µM [2, 8]: 57.7%
PGI release, % of Tx-100 control at 10 µM [2, 16]: 54.7%
cytotoxicity at 10 µM [2, 9]: 75.5%
PGI release, % of Tx-100 control at 10 µM [2, 17]: 71.7%
concentration shown to be active in vitro against metacestodes ([7]; ref Stettler et al., 2003, Reuter et al., 2006): 3.3 µM

C[C@@H]1[C@H](O)[C@@H](C)/C=C/C=C/C=C/C=C/C=C/C=C/C=C/[C@H](O[C@@H]2O[C@H](C)[C@@H](O)[C@H](N)[C@@H]2O)C[C@@H]2O[C@](O)(C[C@@H](O)C[C@@H](O)[C@H](O)CC[C@@H](O)C[C@@H](O)CC(=O)O[C@H]1C)C[C@H](O)[C@H]2C(=O)O [MMV689000, Amphotericin B, reference compound]
cytotoxicity at 10 µM [2, 8]: 34.2%
PGI release, % of Tx-100 control at 10 µM [2, 16]: -1.34%
cytotoxicity at 10 µM [2, 9]: 51.2%
PGI release, % of Tx-100 control at 10 µM [2, 17]: 2.75%
concentration shown to destroy metacestodes in vitro ([7]; ref Reuter et al., 2003, 2010): 2.7 µM
